# Assays:
# glutamate receptor = test: Glutamate receptor blockage on iFbN culture (MEA spike activity); assay type: cell-based, human; details: 50 μM
# Method: Glutamatergic or GABAergic neurons, 9×10^4 cells per well or 1×10^5 cells per well, were plated in 25 μL volume cell in BrainPhys™ medium supplemented with NeuroCult™ SM1 neuronal supplement and incubated for 30-45 minutes at 37° C. and 5% CO2. For coculturing, vandefitemcel (or SB623) cells or astrocytes were cocultured by adding 10-20 μL of cell solution with 1.5×10^4 cells per well following a new incubation for 45 minutes at 37° C. and 5% CO2. Fresh medium was added to reach a volume of 400 μL per well and cells incubated at 37° C. and 5% CO2. Half of the medium volume was changed every three or four days. To isolate the presynaptic activity on MEAs with iFbNs after 50 days of culture, 50 μM of the broad glutamate receptor antagonist Kynurenic acid (from R&D Systems, Minneapolis, MN) was added at 90 seconds from the start of the recording. Spike activity was assessed to detect the blockage of glutamate receptor activity.
# MEA recordings were performed at 37° C. and 5% CO2 using Maestro Edge (from Axion Biosystems, Atlanta, GA). The medium was changed at least two hours before the recordings. Before recordings, levels of CO2 were adjusted to 5%. The duration of each recording was five minutes using AxIS Navigator 3.6.2 with configuration module Neural Real-Time; Spontaneous+Viability from Axion Biosystems with minimum spike rate for active electrodes of five spikes/minute.
# [1] = system: vandefitemcel (or SB623 cells); test: PrestoBlue cell viability of vandefitemcel treated with CB-839; assay type: cell-based, human; details: incubation with CB-839, PrestoBlue HS
# Method: Approximately 50 μL of conditioned medium (CM) was used to determine the glutamate concentration and cell viability. For this assay, PrestoBlue™ high-sensitivity (HS) Cell Viability Reagent (from Thermo Fisher Scientific, Waltham, MA) was used and the reaction absorbance of each sample was read after 2 hours of incubation following the manual procedure provided by the manufacturer.
# Glutamate can be involved in cell metabolism, where it is transformed into α-ketoglutarate and then enters into the tricarboxylic acid cycle to generate ATP [25].
spike activity of iFbN culture (glutamate receptor),Structure (SMILES),viability of vandefitemcel [1]
reduction in the spike activity,"O=C(O)c1cc(=O)c2ccccc2[nH]1 [kynurenic acid, Kynurenic acid]",
,"O=C(Cc1cccc(OC(F)(F)F)c1)Nc1ccc(CCCCc2nnc(NC(=O)Cc3ccccn3)s2)nn1 [CB-839, Telaglenastat]",did not alter the viability

# From patent publication US20250241962A1, “METHODS AND COMPOSITIONS FOR INCREASING NEURONAL ACTIVITY AND SYNAPTIC PLASTICITY” (SanBio, Inc., priority 2024, published 2025)
